Measurements taken from patent US10058570B2 (priority 2007, dated 2018).
Several values for one entry are separate records, joined by “and”; a condition that tells them apart may be missing. Equal values may be shown once. Read-outs that look alike come from different tables or passages of the source. Marks after values point to notes of the source that are not given here.

Experiments:
[1] = system: lipopolysaccharide-induced septic shock; type: in vivo, mouse
[2] = system: developing type II collagen arthritis
[3] = system: formalin-induced hind paw licking; type: in vivo, mouse; conditions: for Hind paw licking time (Seconds) (Mean ± SEM): IP, mean (X)
[4] = system: acetic acid-induced writhing responses; conditions: mouse, in vivo
[5] = system: reaction of host lymphocytes to alloantigen; conditions: mouse, in vivo, 10 mg/kg
[6] = system: LPS-induced neutrophilia in lung tissues; conditions: mouse, in vivo
[7] = system: MRMT-1 tumor-induced bone osteolysis; conditions: rat, in vivo
[8] = sodium meta arsenite study, oral QD, 0.075 mg/kg
[9] = arsenic trioxide study, IP 10 mg/kg
[10] = arsenic trioxide study, IP, QD, 10 mg/kg

## CC(=O)OCC(=O)[C@@]1(O)[C@H](C)C[C@H]2[C@@H]3CCC4=CC(=O)C=C[C@]4(C)[C@@]3(F)[C@@H](O)C[C@@]21C [Dexamehasone 21-acetate, reference compound]
[1]; PO 3 mg/kg, mortality over 3 days after LPS 30 mg/kg IP
  % Protection: (75) %

## CN(Cc1cnc2nc(N)nc(N)c2n1)c1ccc(C(=O)N[C@@H](CCC(=O)O)C(=O)O)cc1 [MTX, methotrexate, reference compound]
Adjuvant arthritis; PO 0.1 mg/kg
  Inhibition of body weight loss from day zero: 91%
  Relative liver weights, reduction toward normal: 100%
  inhibition of ankle diameter AUC increase: 96%
  inhibition of ankle measurements (dorsal to ventral): 97%
  inhibition of final paw weight increase due to arthritis: 99%
  inhibition of histopathologic bone resorption: 100%
  inhibition of histopathologic inflammation: 99%
  inhibition of lymphoid atrophy: 50%
  inhibition of splenic inflammation: 100%
Adjuvant arthritis; PO 0.1 mg/kg, significant days 8-14
  inhibition of ankle diameter increase: Significant inhibition
Adjuvant arthritis; PO 0.1 mg/kg, significant days 10-14
  Mean body weight decrease over time (due to arthritis): inhibited
Adjuvant arthritis; PO 0.01
  Relative spleen weights, reduction toward normal: 77%
[2]; rat, in vivo, po, 0.075 mg/kg
  Relative spleen weights, reduction as compared to disease control rats: 10%
[2]; sodium meta arsenite study, oral 0.075 mg/kg, days 10-17
  inhibition of ankle diameter: Significant inhibition
[2]; sodium meta arsenite study, oral QD days 0-16, 0.075 mg/kg
  inhibition of body weight loss (due to arthritis): 96%
[2]; [8]
  Inhibition of ankle diameter (AUC): 97%
  Inhibition of final paw weight: 95%
  inhibition of ankle histopathology parameters: 97%
  inhibition of knee histopathologic parameters: 100%

## CN1CC[C@]23c4c5ccc(O)c4O[C@H]2[C@@H](O)C=C[C@H]3[C@H]1C5 [Morphine, morphine, reference compound]
[3]; mouse, in vivo
  analgesic effect: associated with analgesic effect
[3]; mouse, in vivo, po, 30 mg/kg
  analgesic effect: significant analgesic effect

## O=[As][O-].[Na+] [sodium meta arsenite, sodium meta arsenite (NaAsO2)]
[4]
  analgesic effect: no analgesic effect
[4]; po, 10 mg/kg
  analgesic activity: significant analgesic activity
  number of writhing responses (average): 7 writhing events
[5]
  immunosuppressive effect in animals treated with alloantigen: slight immunosuppressive effect
Adjuvant arthritis; rat, in vivo
  Inhibition of body weight loss from day 0: 2-14%
  Relative liver weights, reduction: 7-29%
  tolerability: well tolerated
Adjuvant arthritis; rat, in vivo, po
  Calculated ED50, ankle diameter AUC: 10.62 mg/kg
  Calculated ED50, ankle measurements (dorsal to ventral): 13.65 mg/kg
  Calculated ED50, final paw weight: 1421 mg/kg
  Calculated ED50, histopathologic bone resorption: 9.243 mg/kg
  Calculated ED50, histopathologic inflammation: 17.25 mg/kg
  inhibition of histopathologic inflammation: 76%
  inhibition of lymphoid atrophy: 29%
  inhibition of splenic inflammation: 32%
Adjuvant arthritis; rat, in vivo, po, 3 mg/kg
  inhibition of ankle diameter increase: Significant inhibition
Adjuvant arthritis; rat, in vivo, po, 10 mg/kg
  Relative spleen weights, reduction toward normal: 50%
  inhibition of ankle diameter AUC increase: 46%
  inhibition of ankle diameter increase: Significant inhibition
  inhibition of ankle measurements (dorsal to ventral): 36%
  inhibition of final paw weight increase due to arthritis: 28%
  inhibition of histopathologic bone resorption: 59%
  inhibition of histopathologic inflammation: 24%
Adjuvant arthritis; rat, in vivo, po, 30 mg/kg
  Mean body weight loss over time: significantly increased
  Relative spleen weights, reduction toward normal: 91%
  inhibition of ankle diameter AUC increase: 83%
  inhibition of ankle diameter increase: Significant inhibition
  inhibition of ankle measurements (dorsal to ventral): 81%
  inhibition of final paw weight increase due to arthritis: 83%
  inhibition of histopathologic bone resorption: 81%
  inhibition of lymphoid atrophy: 39%
  inhibition of splenic inflammation: 89%
  toxicity (based on body weight changes): toxic
[1]; mouse, in vivo
  IL-1β secretion: significant inhibition
  IL-6 secretion: inhibition
  protection against LPS-induced septic shock: moderate protection
[1]; mouse, in vivo, po
  secretion of KC: no effect
  secretion of MCP-1: no effect
  secretion of TNF-α: no effect
[6]
  KC in lavage fluid: significant reduction
  TNF-α in lavage fluid: significant suppression
  cell counts in lavage fluid: not associated with any significant changes
  monocyte count in lavage fluid: significant decrease
  neutrophil (differential) count in lavage fluid: significant decrease
  secretion of 1L-1β, Il-6 or MCP-1 observed in brachoaveolar lavage fluid: At no concentration
  white blood cell (total) count in lavage fluid: significant decrease
[3]; mouse, in vivo
  analgesic activity: significant analgesic activity
[7]
  ameliorating tumor-induced osteoclasts and osteolysis: strong positive trend
  improving the various aspects of cancer-induced bone damage (histopathology): positive trend
[2]; rat, in vivo
  inhibition of body weight loss (due to arthritis): 100%
[2]; rat, in vivo, 1 mg/kg
  Relative thymus weights, reduction as compared to disease controls: 20%
[2]; rat, in vivo, po
  Calculated ED50 value, ankle diameter (AUC): 8.499 mg/kg
  Calculated ED50 value, ankle histopathology: 7.080 mg/kg
  Calculated ED50 value, body weight loss: 1.929 mg/kg
  Calculated ED50 value, final paw weight: 7.116 mg/kg
  Calculated ED50 value, knee histopathology: 7.924 mg/kg
[2]; rat, in vivo, po, 10 mg/kg
  Inhibition of ankle diameter (AUC): 73%
  Inhibition of ankle diameter AUC: 66%
  Inhibition of final paw weight: 83% and 69%
  Relative liver weights, increase above arthritic controls: 14%
  Relative liver weights, increase over disease controls: 17%
  Relative spleen weights, reduction as compared to disease control rats: 10%
  inhibition of ankle diameter: Significant inhibition
  inhibition of ankle histopathology parameters: 85%
  inhibition of body weight loss: 85%
  inhibition of decrease in ankle diameter: Significant inhibition
  inhibition of knee histopathologic parameters: 87%

## arsenic trioxide (As2O3)
[3]; 1 mg/kg, 0-5 minutes after formalin
  Hind paw licking time (Seconds) (Mean ± SEM): 74.6 s
[3]; 1 mg/kg, 5-10 minutes after formalin
  Hind paw licking time (Seconds) (Mean ± SEM): 2.6* Seconds
[3]; 1 mg/kg, 10-15 minutes after formalin
  Hind paw licking time (Seconds) (Mean ± SEM): 15.6* Seconds
[3]; 1 mg/kg, 15-20 minutes after formalin
  Hind paw licking time (Seconds) (Mean ± SEM): 40.0 s
[3]; 1 mg/kg, 20-25 minutes after formalin
  Hind paw licking time (Seconds) (Mean ± SEM): 57.1 s
[3]; 1 mg/kg, 25-30 minutes after formalin
  Hind paw licking time (Seconds) (Mean ± SEM): 53.5 s
[3]; 1 mg/kg, 30-35 minutes after formalin
  Hind paw licking time (Seconds) (Mean ± SEM): 30.0 s
[3]; 10 mg/kg, 0-5 minutes after formalin
  Hind paw licking time (Seconds) (Mean ± SEM): 9.0* Seconds
[3]; 10 mg/kg, 5-10 minutes after formalin
  Hind paw licking time (Seconds) (Mean ± SEM): 0.3* Seconds
[3]; 10 mg/kg, 10-15 minutes after formalin
  Hind paw licking time (Seconds) (Mean ± SEM): 0.0* Seconds
[3]; 10 mg/kg, 15-20 minutes after formalin
  Hind paw licking time (Seconds) (Mean ± SEM): 0.0* Seconds
[3]; 10 mg/kg, 20-25 minutes after formalin
  Hind paw licking time (Seconds) (Mean ± SEM): 0.0* Seconds
[3]; 10 mg/kg, 25-30 minutes after formalin
  Hind paw licking time (Seconds) (Mean ± SEM): 0.0* Seconds
[3]; 10 mg/kg, 30-35 minutes after formalin
  Hind paw licking time (Seconds) (Mean ± SEM): 0.0 s
[3]; intraperitoneal, 10 mg/kg, intervals 0-5, 5-10, 10-15, 15-20, 20-25 and 25-30 minutes
  inhibition of the licking response to formalin challenge: significant inhibition
[3]; intraperitoneal, lower dose 1 mg/kg
  response (inhibition of licking) to formalin challenge: limited to the intervals of 5-10 and 10-15 minutes after challenge
[2]; arsenic trioxide study, 10 mg/kg
  Relative thymus weights: reduced below arthritic controls
[2]; arsenic trioxide study, IP 1 mg/kg
  Relative liver weights, increase above arthritic controls: 6%
[2]; [9]
  Relative liver weights, increase above arthritic controls: 10%
  Relative spleen weights, reduction as compared to disease control rats: 21%
[2]; arsenic trioxide study, IP 10 mg/kg, days 10-17
  inhibition of decrease in ankle diameter: Significant inhibition
[2]; [10]
  Inhibition of ankle diameter AUC: 80%
  Inhibition of final paw weight: 71%
  inhibition of body weight loss: 55%
